This experiment in a line: Inhibition of HIV1 gp41- induced cell-cell fusion between viral envelope expressed in human HL2/3 cells to CD4/CCR5 receptor expressed TZM-bl cells after 6 hrs by luciferase assay.

A word on the IC50: it is the concentration that inhibits the measured activity by half.

Turning to “H-RIQQIEQKIHHIEQRIQQIEQLLQLTVWGIKQLQARIL-OH”, the IC50 is 251 nM. The same measure for “H-RIQQIEQKIHHIEQRIQQIEQRIEAQQHLLQLTVWGIKQLQARIL-OH”: 39 nM; for “H-RIQQIEQKIHHIEQRIQQIEQRISGIVQQQNNLLRIEAQQHLLQLTVWGIKQLQARIL-OH”: 82 nM.

Substance H-YTSLIHSLIEEQNQQEKNEQELLELDKWALWNWF-OH returned a half-inhibitory concentration (IC50) of 2.5 nM.

(Values after BindingDB's records for doi:10.1016/j.bmc.2019.115214 (Nankai University, 2020).)
